Read-outs that look alike come from different tables or passages of the source.

In data set [1] the test system is PC9 cells. Nature of the data set: cells. The settings on record: Homo sapiens, PC-9, read-out: Calculated IC50.
For data set [2], the system named is H460 cells. Nature of the data set: Cell viability dose-response assay (CellTiter-Glo), IC50 calculation. The class given is cell-based, human.
Data set [3] has as its system PC9, PC9 GR4 and H460 cells. Nature of the data set: MitoSOX staining, mitochondrial ROS by FACS. The settings on record: EGFR mutant PC9 and PC9 GR4 cells, IC50 doses, 24 hours. The class given is cell-based, human. Background: In flow cytometry, cells or beads pass a laser one at a time.
For data set [4], the system named is PC9 GR4 cells. The data set is described as follows: Cell viability dose-response assay (CellTiter-Glo), IC50 calculation. The class given is cell-based, human.
The test system of data set [5] is lung cancer cells (PC9, PC9 GR4, PC9 BrM3, H460, H358). Nature of the data set: 72 hr growth inhibition / cell viability assay with drug combinations and metabolite rescue. The class given is cell-based, human. Conditions: for cell survival in the presence of statins: PC9-BrM3, sub-therapeutic doses, 72 hrs; for cell survival on co-treatment with ABL001: PC9 GR4, PC9 and H460 cells; for rescue of cell survival in cells co-treated with ABL001 and simvastatin: metabolite supplement, 72 hours, PC9 GR4, PC9, H460.

For data set [6] the following is noted: cited from earlier work.
In data set [7] the test system is PC9 BrM3 cells. The data set is described as follows: Cell viability dose-response assay (CellTiter-Glo), IC50 calculation. The class given is cell-based, human. Conditions: read-out: Calculated IC50.
The subject of data set [8] is lung cancer cells (PC9, PC9 GR4, H460, H358). Nature of the data set: Seahorse XF Analyzer Mito Stress Test (OCR: basal respiration, maximal respiration, ATP production). The class given is cell-based, human. The settings on record: for mitochondrial function (basal respiration, maximal respiration, ATP production; OCR): IC50 doses, 24 hours, PC9, PC9 GR4, H460, H358; for mitochondrial respiration in cells treated with ABL001 and simvastatin (MVA rescue and its reversal): PC9 GR4, added to ABL001 + simvastatin (inhibitors with MVA). An excerpt:
(FIGS. 2A-2D) Seahorse XF Analyzer Mito Stress Test analysis of mitochondrial basal respiration, maximal respiration, and ATP production as measured by changes in oxygen consumption rate (OCR). […] (FIG. 2E) Mitochondrial basal respiration, maximal respiration, and ATP production as measured by Seahorse XF Analyzer's Mito Stress Test for PC9 cells harboring shRNAs against ABL1/ABL2 (shAA) and non-targeting control (shSCR). (FIGS. 2F-2G) Mitochondrial ROS (MitoROS) release as measured by FACS analysis of median fluorescent intensity (MFI) using Mitosox probe. […] Data are mean±SEM. […] Seahorse XF Analyzer Mito Stress Test analysis of mitochondrial basal respiration, maximal respiration, and ATP production as measured by changes in oxygen consumption rate (OCR) in the indicated lung cancer cells: (FIG. 8A) PC9; (FIG. 8B) PC9 GR4; (FIG. 8C) H460. […] Doses correspond to IC50 dose for each drug in the corresponding cell line. In each graph, for each of Basal Respiration, Maximal Respiration, and ATP production, data is shown from left to right for DMSO, GNF5, and Nilotinib. […] Cells were treated with IC50 doses for 24 hours (n=3). Data are mean±SEM. […] SEAHORSE MEASUREMENTS. Basal and maximal oxygen consumption rate and ATP production were measured using a Mito Stress test Kit and XF96 Extracellular Flux Analyzer (Seahorse Bioscience), according to manufacturer's instructions. Cells were plated in XF96 plates at 10,000 cells per well on Day 0. […] The plate was incubated in a non-CO2 incubator at 37° C. for 1 hr to equilibrate.

For data set [9], the system named is H358 cells. Nature of the data set: Cell viability dose-response assay (CellTiter-Glo), IC50 calculation. The class given is cell-based, human.
For data set [10], the system named is PC9 and H460 cells. The data set is described as follows: MitoTracker staining, mitochondria number and morphology. The class given is cell-based, human. Conditions: IC50 dose, 24 hours. As for the experimental part:
(FIG. 9A) Mitochondrial basal respiration, maximal respiration, and ATP production as measured by changes in oxygen consumption rate (OCR) from Seahorse XF Analyzer Mito Stress Test analysis for H460 cells harboring shRNAs against ABL1/ABL2 (shAA) and non-targeting control (shSCR). (FIG. 9B) FACS analysis of mitochondrial ROS (MitoROS) using mitosox probe in H460 cells treated with 15 NM GNF5, 15 NM ABL001, and 0.5 nM Docetaxel for 24 hours. n=3 (FIGS. 9C-9D) MitoROS in H460 AA knockdown cells (FIG. 9C) or PC9 AA knockdown cells (FIG. 9D). (FIGS. 9E-9F) M[…] to analyze mitochondria number in H460 cells with 15 NM GNF5 (FIG. 9E) or PC9 cells treated with 10 NM GNF5 (FIG. 9F). n=3 (FIGS. 9G-9H) M[…] of H460 AA knockdown cells (FIG. 9G) or PC9 AA knockdown cells (FIG. 9H). n=3 Statistical analysis was calculated using unpaired two-tailed t test *p<0.05, Data are mean±SEM. (FIG. 9I) H460 cells stained with Mitotracker and Hoescht 33342 following treatment with IC50 dose for each drug for 24 hours. Image quantification showing mitochondrial length×width plotted for thousands of mitochondria from >10 cells across at least two independent experiments. Changes were not statistically significant.
M[…] . MitoTracker Red CMXRos was purchased from Thermofisher (cat. M7512). […] The samples were analyzed using flow cytometer BD FACS Canto II. […]

For data set [11], the system named is PC9 cells. Conditions: read-out: Calculated IC50, dose-response assay.
Data set [12] relates to lung cancer cells (PC9, PC9 GR4, PC9 BrM3, H460). Nature of the data set: Immunoblotting of apoptosis, prenylation and cytochrome c markers. The class given is cell-based, human. Conditions: 24 hr. A general note: A western blot detects proteins with antibodies after separation by electrophoresis.
The test system of data set [13] is PC9 GR4 cells. Nature of the data set: Real-time quantitative PCR of BCL-2 family mRNAs. The class given is cell-based, human. Conditions: PC9 GR4, metabolite supplement, 24 hours. The protocol: (FIG. 5E) Immunoblots of cytochrome c, cleaved PARP, β-catenin, GAPDH, and β-Tubulin. […] Cytoplasmic, membrane, and whole cell fractions are shown for drug treatments. […] Data are mean±SEM. REAL-TIME QUANTITATIVE PCR. RNA was isolated from subconfluent monolayers of cancer cells using the RNeasy RNA isolation kit (QIAGEN), and cDNA synthesis was performed using oligo(dT) primers and M-MLV reverse transcriptase (Invitrogen). RT-qPCR was performed in triplicate wells using iTaq Universal SYBR Green Supermix (Bio-Rad). Primers used in this study were purchased from Sigma Aldrich. Analysis of real-time data was collected using a Bio-Rad CFX384 machine and CFX Maestro software. Expression levels of each gene were normalized to GAPDH control housekeeping genes using the ddCT algorithm.

Where [14] appears, read: Homo sapiens, NCI-H460, H460, dose-response assay, read-out: Calculated IC50.
Where [15] appears, read: Homo sapiens, PC9 GR4, dose-response assay, read-out: Calculated IC50.
Where [16] appears, read: Homo sapiens, PC9 BrM3, dose-response assay.
Where [17] appears, read: Homo sapiens, NCI-H358, H358, dose-response assay, read-out: Calculated IC50.
Setting [18] is: H460, dose-response assay, read-out: Calculated IC50.
The mark [19] stands for this setting: PC9 GR4, dose-response assay, read-out: Calculated IC50.

In general, IC50 refers to the concentration at which inhibition is half-maximal. Turning to `O=C(Nc1ccc(OC(F)(F)Cl)cc1)c1cnc(N2CC[C@@H](O)C2)c(-c2ccn[nH]2)c1` [ABL001, Asciminib], the IC50 in [1] was 7.5 µM; in data set [2] (Homo sapiens, NCI-H460, read-out: Calculated IC50) it was 15 µM; in data set [4] (Homo sapiens, PC9/GR4, read-out: Calculated IC50), 7.5 µM; in data set [7] (Homo sapiens), 7.5 µM; in data set [9] (Homo sapiens, NCI-H358, read-out: Calculated IC50) it was 15 µM. Further, the “mitochondrial reactive oxygen species (MitoROS) levels” value in data set [3] is “increased”. Besides, the “cell survival in the presence of statins” value in [5] is “decreased cell survival”. Also, the tolerability result in data set [6] (mouse, in vivo, po) is reported as “well tolerated”. Further, the body weight entry in [6] (oral gavage, mice) is reported as “does not induce weight loss”. For the same compound, the “crossing of the BBB” value in [6] (preclinical mouse models) was “shown to cross the BBB”. For the same compound, the “mitochondrial function (basal respiration, maximal respiration, ATP production; OCR)” value (shortened to “mitochondrial function”) in [8] is “greatly decreased”. For the same compound, the “mitochondrial morphology (length and width, network)” value in [10] was “marginal, nonsignificant increase”.
Turning to `CC(=O)O[C@@]12CO[C@@H]1C[C@H](O)[C@@]1(C)C(=O)[C@H](O)C3=C(C)[C@@H](OC(=O)[C@H](O)[C@@H](NC(=O)OC(C)(C)C)c4ccccc4)C[C@@](O)([C@@H](OC(=O)c4ccccc4)[C@H]21)C3(C)C` [Docetaxel, docetaxel], the IC50 is 0.001 µM in [1]; 0.0005 µM in [2] (setting [14]); 0.001 µM in data set [4] (setting [15]); 0.001 µM in data set [7] (setting [16]); 0.001 µM in data set [9] (setting [17]). For the same compound, in data set [5], the “cell survival in the presence of statins” value is given as “did not affect cell survival”. For the same compound, the “mitochondrial function” value in data set [8] is given as “did not significantly impair”.
Take `COC(=O)[C@H](CCSC)NC(=O)c1ccc(NC[C@@H](N)CS)cc1-c1ccccc1` [FTI-277]: the figures for the IC50 in data set [2] (setting [18]), in data set [11] and in data set [4] (setting [19]) were 15 µM, 50 µM and 50 µM, respectively. In [5] (72 hr), the “cell survival on co-treatment with ABL001” value is “only slightly decreased”. Further, the “mitochondrial respiration in cells treated with ABL001 and simvastatin (MVA rescue and its reversal)” value (“mitochondrial respiration” for short) in [8] is listed as “minimal effect”.
Turning to `CC(C)n1c(/C=C/C(O)CC(O)CC(=O)O)c(-c2ccc(F)cc2)c2ccccc21` (stereo not shown) [Fluvastatin], the IC50 in data set [2] (setting [18]) is 4 µM; in data set [11] it was 2 µM; in data set [4] (setting [19]), 2 µM; in data set [7] (PC9 BrM3, dose-response assay), 2 µM; in [9] (H358, dose-response assay, read-out: Calculated IC50) it was 4 µM.
As for `CC(C)=CCC/C(C)=C/CC/C(C)=C/CC/C(C)=C/COP(=O)(O)OP(=O)(O)O` [GGPP, geranylgeranyl diphosphate], in data set [5], the “rescue of cell survival in cells co-treated with ABL001 and simvastatin” value was “preferentially rescued cell viability”.
As for `COC(=O)[C@H](CC(C)C)NC(=O)c1ccc(NC[C@@H](N)CS)cc1-c1cccc2ccccc12` [GGTI-298], the values for the half-inhibitory concentration (IC50) in data set [2] (setting [18]), in data set [11] and in data set [4] (setting [19]) were 15 µM, 20 µM and 20 µM, respectively. In data set [5] (72 hr), the “cell survival on co-treatment with ABL001” value is reported as “significantly impaired”. Also, in data set [8], the “mitochondrial respiration” value was “negated the MVA rescue”.
For `COc1cc2ncnc(Nc3ccc(F)c(Cl)c3)c2cc1OCCCN1CCOCC1` [Gefitinib, gefitinib], in [5], the “cell survival in the presence of statins” value was “did not affect cell survival”. Further, in [8], the “mitochondrial function” value is “not impaired”.
For the compound `C[C@@](O)(CCO)CC(=O)O` [MVA, mevalonate], in data set [12] (PC9 GR4, 500 μM MVA added to ABL001 and simvastatin), the “reversal of cytochrome c release” value was “reversed”. Besides, in data set [12] (metabolite supplement), the “prevention of PARP and caspase-3 cleavage in cells co-treated with ABL001 and simvastatin” value was “prevented cleavage of PARP and caspase-3”. Further, the “rescue of cell survival in cells co-treated with ABL001 and simvastatin” value in [5] is “could rescue cell survival”. The “mitochondrial respiration” value in data set [8] is “restored mitochondrial respiration back to baseline”. Besides, the “restoration of BCL-2 family gene expression in combination-treated cells” value in data set [13] is on record as “restored gene expression back to baseline”.
For `Cc1cn(-c2cc(NC(=O)c3ccc(C)c(Nc4nccc(-c5cccnc5)n4)c3)cc(C(F)(F)F)c2)cn1` [Nilotinib], the IC50 in [1], in data set [2] (setting [14]) and in data set [4] (setting [15]) was 2 µM throughout. In addition, the “cell viability on co-treatment with simvastatin or fluvastatin” value in data set [5] (PC9 GR4 and H460, sublethal doses, 72 hr) was “did not promote additive or synergistic decreases in cell viability”. Also, in data set [8], the “mitochondrial function” value is given as “inability of Nilotinib to inhibit mitochondria function”.
For the compound `CCC(C)(C)C(=O)O[C@H]1C[C@@H](C)C=C2C=C[C@H](C)[C@H](CC[C@@H]3C[C@@H](O)CC(=O)O3)[C@H]21` [Simvastatin, simvastatin], the half-maximal inhibitory concentration (IC50) is 4 µM in [1]; 12 µM in data set [2] (setting [14]); 4 µM in data set [4] (setting [15]); 4 µM in data set [7] (setting [16]); 12 µM in data set [9] (setting [17]).

(Values after US20240058335A1, “METHODS FOR TREATMENT OF CANCER USING ABL INHIBITORS AND DRUGS TARGETING THE MEVALONATE PATHWAY” (Duke University, priority 2021, published 2024).)
